From PubChem BioAssay AID1259407 (Chemical Carcinogenesis Research Information System (CCRIS), 2018) come the findings set out here.

The structures appear in SMILES notation. Calls of active or inactive are those of the source. No rule for the calls is given here.

The subject of the series is CCRIS mutagenicity, Ames/micronucleus/aberration tests. As to the kind of experiment: CCRIS mutagenicity studies.
Setting [1] is: Test System: AMES SALMONELLA TYPHIMURIUM, Strain/Indicator: TA98, Metabolic Activation: NONE, Method: PREINCUBATION
The mark [2] stands for this setting: Test System: AMES SALMONELLA TYPHIMURIUM, Strain/Indicator: TA100, Metabolic Activation: NONE, Method: PREINCUBATION
[3] abbreviates: Test System: AMES SALMONELLA TYPHIMURIUM, Strain/Indicator: TA1535, Metabolic Activation: NONE, Method: PREINCUBATION

For `CCC(O)CN` (stereo not drawn), the mutagenic call runs as follows: (Test System: AMES SALMONELLA TYPHIMURIUM, Strain/Indicator: TA97, Metabolic Activation: HAMSTER, LIVER, S-9, AROCLOR 1254 (10 OR 30%), Method: PREINCUBATION) “inactive; negative”; (Test System: AMES SALMONELLA TYPHIMURIUM, Strain/Indicator: TA97, Metabolic Activation: NONE, Method: PREINCUBATION) “inactive; negative”; (Test System: AMES SALMONELLA TYPHIMURIUM, Strain/Indicator: TA97, Metabolic Activation: RAT, LIVER, S-9, AROCLOR 1254 (10 OR 30%), Method: PREINCUBATION) “inactive; negative”; (Test System: AMES SALMONELLA TYPHIMURIUM, Strain/Indicator: TA98, Metabolic Activation: HAMSTER, LIVER, S-9, AROCLOR 1254 (10 OR 30%), Method: PREINCUBATION) “inactive; negative”; under setting [1], “inactive; negative”; (Test System: AMES SALMONELLA TYPHIMURIUM, Strain/Indicator: TA98, Metabolic Activation: RAT, LIVER, S-9, AROCLOR 1254 (10 OR 30%), Method: PREINCUBATION) “inactive; negative”. The mutagenic call was “inactive; negative” (Test System: AMES SALMONELLA TYPHIMURIUM, Strain/Indicator: TA100, Metabolic Activation: HAMSTER, LIVER, S-9, AROCLOR 1254 (10 OR 30%), Method: PREINCUBATION); “inactive; negative” under setting [2]; “inactive; negative” (Test System: AMES SALMONELLA TYPHIMURIUM, Strain/Indicator: TA100, Metabolic Activation: RAT, LIVER, S-9, AROCLOR 1254 (10 OR 30%), Method: PREINCUBATION); “inactive; negative” (Test System: AMES SALMONELLA TYPHIMURIUM, Strain/Indicator: TA1535, Metabolic Activation: HAMSTER, LIVER, S-9, AROCLOR 1254 (10 OR 30%), Method: PREINCUBATION); “inactive; negative” under setting [3]; “inactive; negative” (Test System: AMES SALMONELLA TYPHIMURIUM, Strain/Indicator: TA1535, Metabolic Activation: RAT, LIVER, S-9, AROCLOR 1254 (10 OR 30%), Method: PREINCUBATION).

On to `Cc1ccc(NN=NCc2ccccc2)cc1`, for which the mutagenic call is, setting by setting: under setting [1], “active; positive”; (Test System: AMES SALMONELLA TYPHIMURIUM, Strain/Indicator: TA98, Metabolic Activation: RAT, LIVER, S-9, PCB, Method: PREINCUBATION) “active; positive”; under setting [2], “active; positive”; (Test System: AMES SALMONELLA TYPHIMURIUM, Strain/Indicator: TA100, Metabolic Activation: RAT, LIVER, S-9, PCB, Method: PREINCUBATION) “active; positive”.

With `O=c1oc2ccc([N+](=O)[O-])c3ccc4cccc1c4c23`, the mutagenic call runs as follows: (Test System: AMES SALMONELLA TYPHIMURIUM, Strain/Indicator: TA98(1,8-DNP6), Metabolic Activation: NONE, Method: PREINCUBATION) “active; positive”; (Test System: AMES SALMONELLA TYPHIMURIUM, Strain/Indicator: TA98(1,8-DNP6), Metabolic Activation: RAT, LIVER, S-9, AROCLOR 1254, Method: PREINCUBATION) “inactive; negative”; (Test System: AMES SALMONELLA TYPHIMURIUM, Strain/Indicator: TA98(NR), Metabolic Activation: NONE, Method: PREINCUBATION) “active; positive”; (Test System: AMES SALMONELLA TYPHIMURIUM, Strain/Indicator: TA98(NR), Metabolic Activation: RAT, LIVER, S-9, AROCLOR 1254, Method: PREINCUBATION) “active; positive”; under setting [1], “active; positive”; (Test System: AMES SALMONELLA TYPHIMURIUM, Strain/Indicator: TA98, Metabolic Activation: RAT, LIVER, S-9, AROCLOR 1254, Method: PREINCUBATION) “active; positive”. Further, the mutagenic call is, setting by setting: under setting [2], “active; positive”; (Test System: AMES SALMONELLA TYPHIMURIUM, Strain/Indicator: TA100, Metabolic Activation: RAT, LIVER, S-9, AROCLOR 1254, Method: PREINCUBATION) “active; positive”.

Regarding `NCP(=O)(O)O`, the mutagenic call is, setting by setting: (End Point: In vitro chromosome aberrations, Test System: Human peripheral blood lymphocytes, Metabolic Activation: None) “active; positive (structural changes)”; (End Point: In vivo micronucleus, Test System: Bone marrow erythrocytes, Species: Mouse, Strain/Sex: BALB/Male and female, Route: Intraperitoneal) “active; positive”.

Take `[O]=[Ce]=[O]`: the mutagenic call was “inactive; negative” under setting [1]; “inactive; negative” (Test System: AMES SALMONELLA TYPHIMURIUM, Strain/Indicator: TA98, Metabolic Activation: RAT, LIVER, S-9, KC 500, Method: PREINCUBATION); “inactive; negative” under setting [2]; “inactive; negative” (Test System: AMES SALMONELLA TYPHIMURIUM, Strain/Indicator: TA100, Metabolic Activation: RAT, LIVER, S-9, KC 500, Method: PREINCUBATION); “inactive; negative” under setting [3]; “inactive; negative” (Test System: AMES SALMONELLA TYPHIMURIUM, Strain/Indicator: TA1535, Metabolic Activation: RAT, LIVER, S-9, KC 500, Method: PREINCUBATION). Further, the mutagenic call runs as follows: (Test System: AMES SALMONELLA TYPHIMURIUM, Strain/Indicator: TA1537, Metabolic Activation: NONE, Method: PREINCUBATION) “inactive; negative”; (Test System: AMES SALMONELLA TYPHIMURIUM, Strain/Indicator: TA1537, Metabolic Activation: RAT, LIVER, S-9, KC 500, Method: PREINCUBATION) “inactive; negative”; (Test System: AMES SALMONELLA TYPHIMURIUM, Strain/Indicator: TA1538, Metabolic Activation: NONE, Method: PREINCUBATION) “inactive; negative”; (Test System: AMES SALMONELLA TYPHIMURIUM, Strain/Indicator: TA1538, Metabolic Activation: RAT, LIVER, S-9, KC 500, Method: PREINCUBATION) “inactive; negative”; (Test System: E. COLI, Strain/Indicator: WP2 UVRA, Metabolic Activation: NONE, Method: PREINCUBATION) “inactive; negative”; (Test System: E. COLI, Strain/Indicator: WP2 UVRA, Metabolic Activation: RAT, LIVER, S-9, KC 500, Method: PREINCUBATION) “inactive; negative”.
